Measured values from US9012500B2, “PKC-ε activator” (Nishizaki Bioinformation Research Institute, priority 2010, dated 2015).

How the values were obtained:
[1] = test system: PKC activity of rat PC-12 cells; assay: Intracellular PKC assay in PC-12 cells; type: cell-based
Method: According to the method described in a publication [Kanno T et al., J Lipid Res 47 (6):1146-1156, 2006], the PKC activity of rat PC-12 cells was assayed. The cells were treated with each DCP-LA optical isomer at 37° C. for 10 min. The treatment was performed in an extracellular solution [137 mM NaCl, 5.4 mM KCl, 10 mM MgCl2, 5 mM ethyleneglycol-bis(2-aminoethylether)-N,N,N′,N′-tetraacetic acid (EGTA), 0.3 mM Na2HPO4, 0.4 mM K2HPO4 and 20 mM 4-(2-hydroxyethyl)-1-piperazin-ethanesulfonic acid, pH 7.2]. Then, the cells were rinsed with 100 μl of phosphate-buffered saline (PBS) in the absence of Ca^2+, and incubated in an extracellular solution (50 μl) containing 50 μg/ml digitonin, 25 mM glycerol 2-phosphate, 200 μM ATP and 100 μM synthetic PKC substrate peptide (Pyr-Lys-Arg-Pro-Ser-Gln-Arg-Ser-Lys-Tyr-Leu (SEQ ID NO: 1); MW, 1,374; Pyr: […]) at 37° C. for 15 min. […] A substrate peptide peak and a new resultant product peak were detected at the absorbance of 214 nm (SPD-10Avp UV-VIS detector, Shimadzu Co., Kyoto, Japan). […] The molecular weight was calculated from the two standard spectra of bradykinin (MW 1060.2) and substance P (MW 1672.9).
The areas of the non-phosphorylated and phosphorylated substrate peptides were measured (total area corresponds to the concentration of PKC substrate peptide used). […]

[2] = test system: senescence-accelerated mouse (SAMP8); assay: Water maze test in senescence-accelerated mouse (SAMP8); type: in vivo; conditions: SAMP8, 0.25 mg/kg orally once a day, 8 days
Method: Using senescence-accelerated mouse (accelerated-senescence-prone mice 8: SAMP8) and normal senescence mouse (accelerated-senescence-resistant mice 1: SAMR1) as a control thereof, a water maze test was performed. Male SAMP8 and SAMR1 (22- to 25-week-old) were available from Takeda Pharmaceutical Company Limited (Osaka, Japan). The mice were individually raised in a cage at 23±1° C., 12 hr light/dark cycle (lighted at 7:00 am), and allowed to freely ingest feed (solid feed) and water.
Racemate DCP-LA and 4 optical isomers DCP-LA (α,α-, α,β-, β,α-, β,β-DCP-LA), each dissolved in 0.1 ml polyethylene glycol (PEG), or 0.1 ml PEG were orally administered once a day from the day when the water maze test was started. For each group, the water maze test was performed twice a day for 8 days, and the time required to reach a platform (acquisition latency) was measured.
For the water maze test, a circular plastic water tank (diameter 90 cm, depth 36 cm) was used. The inside of the water tank was completely painted in black, and dark water with India ink was filled up to 20 cm from the bottom (22° C.). A platform (diameter 11 cm) painted in black was placed in water such that it was 1 cm below the water surface. The water tank was placed in a test room, and several marks seen by the mice from the water tank were put thereon. During the test, the position of the marks was not changed. A platform was placed a predetermined position from the equal distance from the center and the end of the water tank, namely, center of one quadrant. At one of the randomly selected 5 points, the mouse was released facing the wall of the water tank, and the time necessary for evacuating on the platform (acquisition latency) was measured. When smoothly evacuated, the mouse was left on the platform for 10 seconds. From the day of water maze test and during the test, polyethylene glycol (PEG) alone or racemate DCP-LA (1 mg/kg), α,α-DCP-LA (0.25 mg/kg), α,β-DCP-LA (0.25 mg/kg), β,α-DCP-LA (0.25 mg/kg), or β,β-DCP-LA (0.25 mg/kg), each dissolved in PEG, was orally administered every day. The water maze test was performed twice a day, and the second test was started at 2 min from the first test. The test was continuously performed for 8 days, and the average value (±SEM) of acquisition latency of continuous 2 days until the mouse reached the platform was calculated (each n=5).

## CCCCC[C@@H]1C[C@@H]1C[C@@H]1C[C@H]1CCCCCCCC(=O)O [α,β-DCP-LA, 8-[(1R,2S)-2-{(1R,2R)-2-pentylcyclopropylmethyl}-cyclopropyl]octanoic acid]
[1]; 100 nM, 37° C., 10 min, FIG. 1
  PKC activation action on PC-12 cells compared to the other optical isomers: most strongly
[1]; PC-12 cells, FIG. 2
  concentration at which the PKC activation action reaches maximum (bell-shaped): about 100 nM
[2]
  acquisition latency as compared to the PEG administration group: shortened acquisition latency
  acquisition latency as compared to the racemate DCP-LA (1 mg/kg) administration group: significantly shortened acquisition latency
  acquisition latency as compared to the α,α-DCP-LA (0.25 mg/kg) administration group: significantly shortened acquisition latency
